The values below come from article PMC11847541, “Liver fatty acid binding protein FABP1 transfers substrates to cytochrome P450 4A11 for catalysis” (The Journal of Biological Chemistry, 2025).

The data set deals with T1, FABP1 (Homo sapiens, UniProt P07148).
T1 construct: GST (N, cleaved yes); made in house; host or cells: Escherichia coli DH5α
T1 sequence (P07148 with tags, fused parts or gaps): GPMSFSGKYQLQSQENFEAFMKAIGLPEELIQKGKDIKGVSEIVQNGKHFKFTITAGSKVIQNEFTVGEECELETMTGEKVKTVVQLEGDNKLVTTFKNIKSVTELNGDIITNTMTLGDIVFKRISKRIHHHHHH
As to the kind of experiment: DAUDA displacement fluorescence titrations of DAUDA–FABP1 with fatty acids, fit in KinTek Explorer. The format is binding. From the text:
The FABP–DAUDA system was used to screen saturated fatty acids (C12 to C18) for binding to FABP, and the Kd values were estimated in competition with the fluorophore (using its known Kd) with the kinetic modeling software KinTek Explorer. The general model is shown in Fig. 5A, where the substrate is competed against the fluorescent DAUDA–FABP1 complex for binding, yielding a ternary DAUDA–FABP1–substrate complex that is accompanied by an attenuation in fluorescence.
Figure 5 Fluorescence titrations of DAUDA–FABP1 with fatty acids (“forward” titrations).A, model of all binding equilibria accounted for in the DAUDA displacement assays. In the fluorescence assays (λex = 335 nm), DAUDA (D) binds to FABP1 (F) to form a fluorescent (indicated with yellow flash) complex (FD), with which a lipid (S) is then competed against for binding. The binding of S attenuates the fluorescence (denoted with a smaller yellow flash) and forms a ternary complex (FDS). High concentrations of S may completely displace D to form FSS, a spectroscopically silent complex. Using this method, fluorescence titrations were carried out with the fatty acids (B) laurate, (C) myristate, (D) palmitate, (E) 16-hydroxypalmitate, and (F) stearate. Fluorescence at the emission maximum (482 nm) was monitored (as in Fig. 4) and normalized to the starting fluorescence (i.e., the FD complex prior to the addition of S). Each data point corresponds to one independent replicate. DAUDA, 11-dansylaminoundecanoic acid; FABP1, fatty acid binding protein.
For the titrations with lipids, solutions of FABP1 (0.5 μM) and DAUDA (0.25 μM) were prepared such that the fluorescent species was not present in excess ([75]). A baseline was recorded with phosphate buffer, and a starting (basis) spectrum was recorded of the FABP–DAUDA complex (1 ml). The lipid solutions were gradually added to the cuvette with gentle mixing (pipetting up and down ∼7× with a pipette tip), and spectra were recorded (Fig. S12A). Control titrations were also performed the same day with solvent alone (Fig. S12B) as a normalizing factor for the lipid titrations as fluorescence attenuation was also observed to a much lesser degree as a solvent effect (Fig. S12C, D). […] The data were processed such that within the lipid titration and the solvent titration, the F482 values were normalized to the starting value (the initial FABP1–DAUDA complex with nothing added, set to 100%). The relative fluorescence of the lipid titration was then normalized to the relative fluorescence of the solvent titration to adjust for fluorescence attenuation observed in the solvent titration (presumably from altering the fluorophore environment). Thus, the data were processed according to y=(F482/F482(initial))lipid/(F482/F482(initial))solvent , and the resulting values were plotted as a function of lipid concentration (Fig. S12E). The curve was imported into KinTek Explorer ([76]) and was fit to a kinetic model (Fig. S13) to determine the Kd values (Table 1). Within the KinTek software, all fluorescent species required fluorescence scaling factors to convert signal to concentration. Scaling factors for the FABP–DAUDA complex, FABP–DAUDA–lipid complex, and DAUDA alone were 460, 92, and 8, respectively.
Figure S12. Data processing for FABP1 titration with palmitate. Fluorescence spectrum of increasing additions of (A) palmitate (0-2 µM, added in C2H5OH) and (B) C2H5OH to a mixture of DAUDA (0.25 µM) and FABP1 (0.5 µM), performed as described in the Experimental Methods (see “Titrations of FABP1 with lipids, DAUDA”). C, fluorescence values at 482 nm (F482) from the titrations presented in parts A and B are normalized to the starting values (DAUDA-FABP1 complex, no volume added). Data are reported as a function of volume of titrant added to the cuvette (black, C2H5OH alone; red, palmitate in C2H5OH). […]

[1] abbreviates: lipid binding to DAUDA-bound FABP1 (DAUDA displacement), read-out: Kd, FD + S ↔ FDS.
The mark [2] stands for this setting: lipid binding to apo-FABP1, estimated via kinetic modeling, read-out: Kd, F + S ↔ FS.
Setting [3] is: lipid binding to ternary complex FDS (full displacement of DAUDA), low-affinity site, read-out: Kd, FDS + S ↔ FSS + D.

Several values for one entry are separate records, joined by “and”; a condition that tells them apart may be missing. Equal entries are not always repeated. Where two headings read alike, the source gives them in different places.

`O=C(O)CCCCCCCCCCCCCCCO` [16-OH Palmitate (C16), 16-hydroxypalmitate]: the “koff, F + S ↔ FS” value (lipid (S) binding to apo-FABP1 (F), kinetic modeling, on-rate 9.0 × 10^7 M^−1 s^−1) was found to be 47 s⁻¹. Further, the Kd under setting [1] is 15 µM, the Kd under setting [2] was 0.52 µM and the Kd under setting [3] turned out to be 63 µM. In addition, the “koff, FD + S ↔ FDS” value (lipid binding to DAUDA-bound FABP1 (FD), on-rate 2.3 × 10^7 M^−1 s^−1) worked out at 350 s⁻¹. For the same compound, for the setting “lipid binding to ternary complex FDS (full displacement of DAUDA)”, the “koff, FDS + S ↔ FSS + D” value stood at 1500 s⁻¹.
`CCCCCCCCCCCCCCCC(=O)O` [Palmitate (C16), palmitate]: the “affinity difference between the two FABP1 binding sites” value is on record as above 250 fold. Besides, for the setting “faster”, the “koff of palmitate from FABP1 relative to binding of palmitate (1–10 μM) to P450 4A11” value is on record as 10–100 fold. Moreover, the remaining activity at 0.01 µM (lipid 0.01 µM, FABP1 0.5 µM, DAUDA 0.25 µM, F482 normalized, read-out: % Fluorescence) stood at 91%. For the same compound, the remaining activity at 0.025 µM (lipid 0.025 µM, FABP1 0.5 µM, DAUDA 0.25 µM, F482 normalized) came to 85.5%. The remaining activity at 0.05 µM (lipid 0.05 µM, FABP1 0.5 µM, DAUDA 0.25 µM, F482 normalized) turned out to be 84.5%. Also, the remaining activity at 0.075 µM (lipid 0.075 µM, FABP1 0.5 µM, DAUDA 0.25 µM, F482 normalized) worked out at 79.1%. Where the note is “lipid 0.1 µM, FABP1 0.5 µM, DAUDA 0.25 µM, F482 normalized, read-out: % Fluorescence”, the remaining activity at 0.1 µM came out at 74.5%. The remaining activity at 0.15 µM (lipid 0.15 µM, FABP1 0.5 µM, DAUDA 0.25 µM, F482 normalized) was found to be 67.2%. For the same compound, for the setting “lipid 0.2 µM, FABP1 0.5 µM, DAUDA 0.25 µM, F482 normalized”, the remaining activity at 0.2 µM is 60.3%. Also, the remaining activity at 0.25 µM (lipid 0.25 µM, FABP1 0.5 µM, DAUDA 0.25 µM, F482 normalized) came to 55.8%. The compound further displayed a remaining activity at 0.35 µM (lipid 0.35 µM, FABP1 0.5 µM, DAUDA 0.25 µM, F482 normalized) of 42.4%. Also, the remaining activity at 0.45 µM (lipid 0.45 µM, FABP1 0.5 µM, DAUDA 0.25 µM, F482 normalized) stood at 36.3%. Moreover, the remaining activity at 0.6 µM (lipid 0.6 µM, FABP1 0.5 µM, DAUDA 0.25 µM, F482 normalized, read-out: % Fluorescence) came to 30.3%. The compound also registered a remaining activity at 0.9 µM (lipid 0.9 µM, FABP1 0.5 µM, DAUDA 0.25 µM, F482 normalized) of 21.6%. Further, the remaining activity at 1.15 µM (lipid 1.15 µM, FABP1 0.5 µM, DAUDA 0.25 µM, F482 normalized) is 20.5%. Also, the remaining activity at 1.4 µM (lipid 1.4 µM, FABP1 0.5 µM, DAUDA 0.25 µM, F482 normalized) came to 19.4%. For the same compound, the remaining activity at 1.9 µM (lipid 1.9 µM, FABP1 0.5 µM, DAUDA 0.25 µM, F482 normalized) was 20.4%. Also, the koff (lipid (S) binding to apo-FABP1 (F), kinetic modeling, on-rate 9.0 × 10^7 M^−1 s^−1, read-out: koff, F + S ↔ FS) was found to be 4.1 s⁻¹. Also, the Kd under setting [1] was 0.01 µM. Further, the koff (lipid binding to DAUDA-bound FABP1 (FD), on-rate 2.3 × 10^7 M^−1 s^−1, read-out: koff, FD + S ↔ FDS) turned out to be 0.24 s⁻¹. The Kd under setting [2] was 0.046 µM. Further, the dissociation constant (Kd) under setting [3] was found to be 10 µM. Moreover, the koff (lipid binding to ternary complex FDS (full displacement of DAUDA), read-out: koff, FDS + S ↔ FSS + D) was 240 s⁻¹. For the same compound, the “tighter binding of palmitate to FABP1 than to P450 4A11” value (ratio of Kd values) was > 100 fold and 100 fold.

Usually Kd stands for a measure of binding affinity in units of concentration. One may read the koff as the first-order rate constant of dissociation.
